Data as given in patent publication US7659297B2, “Tetrahydronaphthalene derivatives, process for their production and their use as anti-inflammatory agents” (Bayer Schering Pharma, AG, priority 2003, dated 2010).

Columns and labels:
[1] = target: T1, progesterone receptors (PR) (Homo sapiens, UniProt P06401); assay: Binding to other steroid hormone receptors with recombinantly produced receptors: progesterone receptor
T1 construct: made in house
T1 sequence (P06401 1-933): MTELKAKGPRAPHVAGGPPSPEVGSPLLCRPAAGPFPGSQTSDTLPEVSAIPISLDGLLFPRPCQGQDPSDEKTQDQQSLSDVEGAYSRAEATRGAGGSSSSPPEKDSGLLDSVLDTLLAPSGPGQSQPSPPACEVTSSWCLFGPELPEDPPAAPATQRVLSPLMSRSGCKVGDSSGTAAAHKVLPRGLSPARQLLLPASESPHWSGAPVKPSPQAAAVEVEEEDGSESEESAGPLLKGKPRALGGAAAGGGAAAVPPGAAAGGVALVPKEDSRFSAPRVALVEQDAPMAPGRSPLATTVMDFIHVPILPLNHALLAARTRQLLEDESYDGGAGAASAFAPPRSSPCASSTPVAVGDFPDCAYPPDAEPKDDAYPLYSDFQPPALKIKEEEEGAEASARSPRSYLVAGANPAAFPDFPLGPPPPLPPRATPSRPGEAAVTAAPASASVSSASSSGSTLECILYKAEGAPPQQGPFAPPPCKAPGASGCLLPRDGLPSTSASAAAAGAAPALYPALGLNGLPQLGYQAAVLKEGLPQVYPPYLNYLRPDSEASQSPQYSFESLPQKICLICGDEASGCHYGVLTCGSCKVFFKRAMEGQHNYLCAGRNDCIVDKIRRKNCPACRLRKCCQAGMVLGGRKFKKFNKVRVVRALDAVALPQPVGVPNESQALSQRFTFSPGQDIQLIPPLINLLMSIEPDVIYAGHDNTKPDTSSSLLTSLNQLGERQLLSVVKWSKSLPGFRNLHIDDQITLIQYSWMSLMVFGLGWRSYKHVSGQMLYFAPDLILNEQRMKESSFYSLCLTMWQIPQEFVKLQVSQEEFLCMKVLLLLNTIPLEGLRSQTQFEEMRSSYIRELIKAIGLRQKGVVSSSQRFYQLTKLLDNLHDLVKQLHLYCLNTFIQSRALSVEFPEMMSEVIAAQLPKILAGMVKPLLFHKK
Excerpt: (§1) The binding of substances to the glucocorticoid receptor (GR) and other steroid hormone-receptors (mineral corticoid receptors (MR), progesterone receptors (PR) and androgen receptors (AR)) is examined with the aid of recombinantly produced receptors. Cytosol preparations of Sf9 cells, which had been infected with recombinant baculoviruses that code for the GR, are used for the binding tests. In comparison to the reference substance [^3H]-dexamethasone, the substances show a high affinity to the GR.

[2] = test system: secretion of the cytokine IL-8, triggered by lipopolysaccharide (LPS), in the human monocyte cell line THP-1; assay: Inhibition of LPS-triggered secretion of the cytokine IL-8 in THP-1 cells (ELISA of supernatant); assay type: cell-based; conditions: LPS-triggered IL-8 secretion
Protocol: The concentration of the cytokines was determined in the supernatant by means of commercially available ELISA kits.

[3] = target: T2, glucocorticoid receptor (GR) (Homo sapiens, UniProt P04150); assay: Binding to the glucocorticoid receptor, recombinantly produced receptor, cytosol preparations of Sf9 cells, reference [3H]-dexamethasone; conditions: recombinant GR
T2 construct: made in house; host or cells: Sf9 cells infected with recombinant baculovirus (cytosol preparation)
T2 sequence (P04150 1-777): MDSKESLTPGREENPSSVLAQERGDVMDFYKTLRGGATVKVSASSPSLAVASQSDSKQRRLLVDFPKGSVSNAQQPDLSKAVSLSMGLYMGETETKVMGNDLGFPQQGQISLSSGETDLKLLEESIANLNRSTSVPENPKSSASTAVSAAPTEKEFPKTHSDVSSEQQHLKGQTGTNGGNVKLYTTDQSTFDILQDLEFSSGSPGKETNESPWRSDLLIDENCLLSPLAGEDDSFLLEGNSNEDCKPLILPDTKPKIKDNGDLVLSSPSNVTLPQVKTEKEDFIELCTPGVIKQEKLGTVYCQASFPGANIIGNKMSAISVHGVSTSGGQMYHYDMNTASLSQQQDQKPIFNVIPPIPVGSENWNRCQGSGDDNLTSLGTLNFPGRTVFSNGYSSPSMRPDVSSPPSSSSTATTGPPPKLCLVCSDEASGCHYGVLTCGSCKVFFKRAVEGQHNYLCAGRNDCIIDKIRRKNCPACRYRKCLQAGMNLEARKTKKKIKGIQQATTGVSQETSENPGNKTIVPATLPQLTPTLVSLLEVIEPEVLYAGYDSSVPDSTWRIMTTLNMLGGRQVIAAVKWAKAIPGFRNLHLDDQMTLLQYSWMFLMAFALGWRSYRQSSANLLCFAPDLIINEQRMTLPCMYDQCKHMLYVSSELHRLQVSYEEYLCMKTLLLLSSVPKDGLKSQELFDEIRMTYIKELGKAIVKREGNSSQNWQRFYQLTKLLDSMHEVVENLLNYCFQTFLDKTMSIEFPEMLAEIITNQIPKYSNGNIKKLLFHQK
Excerpt: as §1

- IC50 [1]: > 1000 nM
- IC50 ([2]; Homo sapiens, read-out: inhibition IC50(IL8)): 40 nM
- IC50 [3]: 86 nM
SMILES: Cc1ncc2c(NC3c4cc(C)c(F)c(O)c4C(C)(C)CC3(O)C(F)(F)F)ccc(F)c2n1 (racemic) [Example 285, 6-Fluoro-1-[(8-fluoro-2-methylquinazolin-5-yl)amino]-4,4,7-trimethyl-2-(trifluoromethyl)-1,2,3,4-tetrahydronaphthalene-2,5-diol]
- eff (IL8 inhibition) [2]: 79%
